Where a name gives a salt, the structure may show the parent alone.
system: recombinant guanylate cyclase reporter cell line; experiment: Action on recombinant guanylate cyclase reporter cell line (MEC); assay type: cell-based; conditions: in some cases mean values obtained from individual determinations
Method: B-2. Action on Recombinant Guanylate Cyclase Reporter Cell Line
The cellular action of the compounds according to the invention is determined on a recombinant guanylate cyclase reporter cell line, as described in F. Wunder et al., Anal. Biochem. 339, 104-112 (2005).
Representative values (MEC=minimal effective concentration) for the compounds according to the invention are shown in the following table (in some cases as mean values obtained from individual determinations): […]

SMILES | minimal effective concentration
CSCC[C@@H](CO)NC(=O)c1c(C)nc2c(OCC3CCCCC3)cccn12 [Example 90, 8-(cyclohexylmethoxy)-N-[(2S)-1-hydroxy-4-(methylsulphanyl)butan-2-yl]-2-methylimidazo[1,2-a]pyridine-3-carboxamide] | 1 µM
Cc1nc2c(OCc3c(F)cccc3F)cccn2c1C(=O)NCCCCO [Example 23, 8-[(2,6-difluorobenzyl)oxy]-N-(4-hydroxybutyl)-2-methylimidazo[1,2-a]pyridine-3-carboxamide] | 0.3 µM
Cc1nc2c(OCc3c(F)cccc3F)cccn2c1C(=O)NC(C)C(O)C(F)(F)F (single isomer, unassigned) [Example 144, 8-[(2,6-Difluorobenzyl)oxy]-2-methyl-N-(4,4,4-trifluoro-3-hydroxybutan-2-yl)imidazo[1,2-a]-pyridine-3-carboxamide] | 0.3 µM
Cc1nc2c(OCc3c(F)cccc3F)cccn2c1C(=O)NC(CO)CCC(F)(F)F (single isomer, unassigned; ent-8) [Example 122, ent-8-[(2,6-Difluorobenzyl)oxy]-2-methyl-N-(5,5,5-trifluoro-1-hydroxypentan-2-yl)imidazo[1,2-a]-pyridine-3-carboxamide] | 0.03 µM
Cc1nc2c(OCc3cccc(Cl)c3Cl)cccn2c1C(=O)NC(CO)CO [Example 49, 8-[(2,3-dichlorobenzyl)oxy]-N-(1,3-dihydroxypropan-2-yl)-2-methylimidazo[1,2-a]-pyridine-3-carboxamide] | 2 µM
Cc1nc2c(OCc3c(F)cccc3F)cccn2c1C(=O)N[C@@H](CO)C(C)C [Example 29, 8-[(2,6-difluorobenzyl)oxy]-N-[(2R)-1-hydroxy-3-methylbutan-2-yl]-2-methylimidazo[1,2-a]-pyridine-3-carboxamide] | 0.1 µM
CCCC[C@H](CO)NC(=O)c1c(C)nc2c(OCc3cccc(F)c3)cccn12 [Example 6, 8-[(3-fluorobenzyl)-oxy]-N-[(2R)-1-hydroxyhexan-2-yl]-2-methylimidazo[1,2-a]pyridine-3-carboxamide] | 0.1 µM
CCC[C@H](CO)NC(=O)c1c(C)nc2c(OCc3c(F)cccc3F)cccn12 [Example 18, 8-[(2,6-difluorobenzyl)oxy]-N-[(2R)-1-hydroxy-pentan-2-yl]-2-methylimidazo[1,2-a]pyridine-3-carboxamide] | 0.1 µM
Cc1nc2c(OCc3c(F)cccc3F)cccn2c1C(=O)NCC(O)COc1ccc(F)cc1 (stereo not drawn) [Example 136, 8-[(2,6-difluorobenzyl)oxy]-N-[3-(4-fluorophenoxy)-2-hydroxypropyl]-2-methylimidzao[1,2-a]pyridine-3-carboxamide] | 3 µM
CCCC[C@H](CO)NC(=O)c1c(C)nc2c(OCc3c(F)cccc3F)cc(N3CCCC3)cn12 [Example 64, 8-[(2,6-difluorobenzyl)oxy]-N-[(2R)-1-hydroxyhexan-2-yl]-2-methyl-6-(pyrrolidin-1-yl)imidazo[1,2-a]pyridine-3-carboxamide] | 3 µM
Cc1nc2c(OCc3c(F)cccc3F)cccn2c1C(=O)NCC(O)C(F)(F)F (racemic) [Example 106, rac-8-[(2,6-difluorobenzyl)oxy]-2-methyl-N-(3,3,3-trifluoro-2-hydroxypropyl)imidazo[1,2-a]pyridine-3-carboxamide trifluoroacetate] | 0.3 µM
Cc1nc2c(OCc3c(F)cccc3F)cccn2c1C(=O)N[C@H]1c2ccccc2C[C@H]1O [Example 40, 8-[(2,6-difluorobenzyl)oxy]-N-[(1S,2R)-2-hydroxy-2,3-dihydro-1H-inden-1-yl]-2-methylimidazo[1,2-a]pyridine-3-carboxamide] | 0.1 µM
CCCC[C@H](CO)NC(=O)c1c(C)nc2c(OCc3cccc(F)c3F)cccn12 [Example 10, 8-[(2,3-difluorobenzyl)oxy]-N-[(2R)-1-hydroxyhexan-2-yl]-2-methylimidazo[1,2-a]pyridine-3-carboxamide] | 0.3 µM
CC[C@H](CO)NC(=O)c1c(C)nc2c(OCc3ccccc3)cccn12 [Example 17, 8-(Benzyloxy)-N-[(2R)-1-hydroxybutan-2-yl]-2-methylimidazo[1,2-a]pyridine-3-carboxamide] | 3 µM
Cc1nc2c(OCc3c(F)cccc3F)cccn2c1C(=O)NCCO [Example 21, 8-[(2,6-difluorobenzyl)oxy]-N-(2-hydroxyethyl)-2-methylimidazo[1,2-a]pyridine-3-carboxamide] | 1 µM
Cc1nc2c(OCc3c(F)cccc3F)cccn2c1C(=O)N[C@@H]1CCC[C@@H]1O [Example 37, 8-[(2,6-difluorobenzyl)oxy]-N-[(1R,2S)-2-hydroxycyclopentyl]-2-methylimidazo[1,2-a]-pyridine-3-carboxamide] | 0.3 µM
Cc1nc2c(OCc3c(F)cccc3F)cccn2c1C(=O)NC(CO)c1ccccn1 (racemic) [Example 119, rac-8-[(2,6-difluorobenzyl)oxy]-N-[2-hydroxy-1-(pyridin-2-yl)ethyl]-2-methylimidazo[1,2-a]-pyridine-3-carboxamide] | 0.3 µM

SMILES | minimal effective concentration
Cc1nc2c(OCc3c(F)cccc3F)cccn2c1C(=O)NC(C)(C)[C@H](C)O [Example 20, 8-[(2,6-difluorobenzyl)oxy]-N-[(3S)-3-hydroxy-2-methylbutan-2-yl]-2-methylimidazo[1,2-a]-pyridine-3-carboxamide] | 1 µM
CCCC[C@H](CO)NC(=O)c1c(C)nc2c(OCCC(C)C)cc(C)cn12 [Example 166, N-[(2R)-1-Hydroxyhexan-2-yl]-2,6-dimethyl-8-(3-methylbutoxy)imidazo[1,2-a]pyridine-3-carboxamide] | 1 µM
Cc1nc2c(OCc3c(F)cccc3F)cccn2c1C(=O)N[C@@H](CO)c1ccccc1 (racemic) [Example 104, rac-8-[(2,6-difluorobenzyl)oxy]-N-[(1R)-2-hydroxy-1-phenylethyl]-2-methylimidazo[1,2-a]pyridine-3-carboxamide trifluoroacetate] | 0.1 µM
C=CCC(CO)NC(=O)c1c(C)nc2c(OCC3CCCCC3)cccn12 (racemic) [Example 70, (rac)-8-(cyclohexylmethoxy)-N-(1-hydroxypent-4-en-2-yl)-2-methylimidazo[1,2-a]pyridine-3-carboxamide] | 0.1 µM
Cc1nc2c(OCC3CCCCC3)cccn2c1C(=O)NC[C@H](O)CO [Example 68, 8-(cyclohexylmethoxy)-N-[(2S)-2,3-dihydroxypropyl]-2-methylimidazo[1,2-a]pyridine-3-carboxamide] | 0.03 µM
CSCC[C@H](CO)NC(=O)c1c(C)nc2c(OCc3c(F)cccc3F)cccn12 [Example 25, 8-[(2,6-difluorobenzyl)oxy]-N-[(2R)-1-hydroxy-4-(methylsulphanyl)butan-2-yl]-2-methyl-imidazo[1,2-a]pyridine-3-carboxamide] | 0.1 µM
Cc1nc2c(OCc3c(F)cccc3F)cccn2c1C(=O)NC(CO)C(F)(F)F (racemic) [Example 110, rac-8-[(2,6-Difluorobenzyl)oxy]-2-methyl-N-(1,1,1-trifluoro-3-hydroxypropan-2-yl)imidazo[1,2-a]pyridine-3-carboxamide] | 0.3 µM
Cc1nc2c(OCC3CCC3)cccn2c1C(=O)NCCC1(O)CCCCC1 [Example 99, 8-(cyclobutylmethoxy)-N-[2-(1-hydroxycyclohexyl)ethyl]-2-methylimidazo[1,2-a]pyridine-3-carboxamide] | 3 µM
Cc1nc2c(OCc3c(F)cccc3F)cccn2c1C(=O)NC(C)(C)CO [Example 34, 8-[(2,6-difluorobenzyl)oxy]-N-(1-hydroxy-2-methylpropan-2-yl)-2-methylimidazo[1,2-a]-pyridine-3-carboxamide] | 0.3 µM
Cc1nc2c(OCc3c(F)cccc3F)cccn2c1C(=O)NC[C@@H]1CCCC[C@H]1O (racemic) [Example 27, (rac)-trans-8-[(2,6-difluorobenzyl)oxy]-N-[(2-hydroxycyclohexyl)methyl]-2-methylimidazo[1,2-a]pyridine-3-carboxamide] | 0.3 µM
CCCC[C@H](CO)NC(=O)c1c(C)nc2c(OCc3c(F)cc(F)cc3F)cccn12 [Example 15, N-[(2R)-1-Hydroxyhexan-2-yl]-2-methyl-8-[(2,4,6-trifluorobenzyl)oxy]imidazo[1,2-a]pyridine-3-carboxamide] | 0.1 µM
CCCC[C@H](CO)NC(=O)c1c(C)nc2c(OCc3c(F)cccc3F)cc(Cl)cn12 [Example 131, 6-chloro-8-[(2,6-difluorobenzyl)oxy]-N-[(2R)-1-hydroxyhexan-2-yl]-2-methylimidazo[1,2-a]pyridine-3-carboxamide] | 0.01 µM
CCCC[C@H](CO)NC(=O)c1c(C)nc2c(OCc3c(F)cccc3F)cc(CC)cn12 [Example 60, 8-[(2,6-difluorobenzyl)oxy]-6-ethyl-N-[(2R)-1-hydroxyhexan-2-yl]-2-methylimidazo[1,2-a]pyridine-3-carboxamide] | 0.1 µM
CCCC[C@H](CO)NC(=O)c1c(C)nc2c(OCc3c(F)cccc3F)c(F)ccn12 [Example 177, 8-[(2,6-Difluorobenzyl)oxy]-7-fluoro-N-[(2R)-1-hydroxyhexan-2-yl]-2-methylimidazo[1,2-a]-pyridine-3-carboxamide] | 1 µM
CCC(O)CNC(=O)c1c(C)nc2c(OCCC(C(F)(F)F)C(F)(F)F)cc(C)cn12 (racemic) [Example 174, rac-N-(2-hydroxybutyl)-2,6-dimethyl-8-[4,4,4-trifluoro-3-(trifluoromethyl)butoxy]imidazo[1,2-a]pyridine-3-carboxamide] | 3 µM
Cc1nc2c(OCC3CCCCC3)cccn2c1C(=O)N[C@H](CO)CC(C)C [Example 95, 8-(cyclohexylmethoxy)-N-[(2S)-1-hydroxy-4-methylpentan-2-yl]-2-methylimidazo[1,2-a]pyridine-3-carboxamide] | 3 µM

Reference: patent US8778964B2, “Hydroxy-substituted imidazo[1,2-a]-pyridinecarboxamides and their use” (Bayer Pharma Aktiengesellschaft, priority 2012, dated 2014)
